How the values were obtained:
Test in all cases: KINOMEscan
Assay type in all cases: binding
[1] = biological target: ABL1(T315I)-phosphorylated (Homo sapiens (Human), UniProt P00519, T315I); settings: read-out: percent control
Excerpt: (§1) Example 2. In Vitro Kinase Selectivity Profiling of the Compounds of the Present Disclosure

[2] = biological target: JNK1 (Homo sapiens (Human), UniProt P45983); settings: read-out: percent control
Excerpt: as §1

[3] = biological target: PIM2 (Homo sapiens (Human), UniProt Q9P1W9); settings: read-out: percent control
Excerpt: as §1

[4] = biological target: RIPK1 (Homo sapiens (Human), UniProt Q13546); settings: read-out: percent control
Excerpt: as §1

[5] = biological target: PDGFRB (Homo sapiens (Human), UniProt P09619); settings: read-out: percent control
Excerpt: as §1

[6] = biological target: ERK4 (Homo sapiens (Human), UniProt P31152); settings: read-out: percent control
Excerpt: as §1

[7] = biological target: GSK3B (Homo sapiens (Human), UniProt P49841); settings: read-out: percent control
Excerpt: as §1

[8] = biological target: LIMK2 (Homo sapiens (Human), UniProt P53671); settings: read-out: percent control
Excerpt: as §1

[9] = biological target: CDKL3 (Homo sapiens (Human), UniProt Q8IVW4); settings: read-out: percent control
Excerpt: as §1

[10] = biological target: PRP4 (Homo sapiens (Human), UniProt Q13523); settings: read-out: percent control
Excerpt: as §1

[11] = biological target: KIT(V559D) (Homo sapiens (Human), UniProt P10721, V559D); settings: read-out: percent control
Excerpt: as §1

[12] = biological target: IRAK4 (Homo sapiens (Human), UniProt Q9NWZ3); settings: read-out: percent control
Excerpt: as §1

[13] = biological target: TRPM6 (Homo sapiens (Human), UniProt Q9BX84); settings: read-out: percent control
Excerpt: as §1

[14] = biological target: ERK5 (Homo sapiens (Human), UniProt Q13164); settings: read-out: percent control
Excerpt: as §1

[15] = biological target: PFTAIRE2 (Homo sapiens (Human), UniProt Q96Q40); settings: read-out: percent control
Excerpt: as §1

[16] = biological target: NEK3 (Homo sapiens (Human), UniProt P51956); settings: read-out: percent control
Excerpt: as §1

[17] = biological target: YANK2 (Homo sapiens (Human), UniProt Q9NY57); settings: read-out: percent control
Excerpt: as §1

[18] = biological target: PAK2 (Homo sapiens (Human), UniProt Q13177); settings: read-out: percent control
Excerpt: as §1

[19] = biological target: SgK110 (Homo sapiens (Human), UniProt P0C264); settings: read-out: percent control
Excerpt: as §1

[20] = biological target: FLT3(K663Q) (Homo sapiens (Human), UniProt P36888, K663Q); settings: read-out: percent control
Excerpt: as §1

[21] = biological target: EGFR(E746-A750del) (Homo sapiens (Human), UniProt P00533, DEL746-750); settings: read-out: percent control
Excerpt: as §1

[22] = system: FLT3(ITD, F691L); settings: 1 μM
Excerpt: as §1

[23] = biological target: TGFBR1 (Homo sapiens (Human), UniProt P36897); settings: read-out: percent control
Excerpt: as §1

[24] = biological target: CHEK2 (Homo sapiens (Human), UniProt O96017); settings: read-out: percent control
Excerpt: as §1

[25] = biological target: IKK-alpha (Homo sapiens (Human), UniProt O15111); settings: read-out: percent control
Excerpt: as §1

[26] = biological target: ABL1(F317L)-nonphosphorylated (Homo sapiens (Human), UniProt P00519, F317L); settings: read-out: percent control
Excerpt: as §1

[27] = biological target: ZAP70 (Homo sapiens (Human), UniProt P43403); settings: read-out: percent control
Excerpt: as §1

[28] = biological target: BRAF (Homo sapiens (Human), UniProt P15056); settings: read-out: percent control
Excerpt: as §1

[29] = biological target: CDK7 (Homo sapiens (Human), UniProt P50613); settings: read-out: percent control
Excerpt: as §1

[30] = biological target: MAP3K2 (Homo sapiens (Human), UniProt Q9Y2U5); settings: read-out: percent control
Excerpt: as §1

[31] = biological target: MRCKB (Homo sapiens (Human), UniProt Q9Y5S2); settings: read-out: percent control
Excerpt: as §1

[32] = biological target: ABL1(F317L)-phosphorylated (Homo sapiens (Human), UniProt P00519, F317L); settings: read-out: percent control
Excerpt: as §1

[33] = biological target: RSK1(Kin.Dom.1-N-terminal) (Homo sapiens (Human), UniProt Q15418); settings: read-out: percent control
Excerpt: as §1

[34] = biological target: HIPK4 (Homo sapiens (Human), UniProt Q8NE63); settings: read-out: percent control
Excerpt: as §1

[35] = biological target: SRMS (Homo sapiens (Human), UniProt Q9H3Y6); settings: read-out: percent control
Excerpt: as §1

[36] = biological target: ERBB3 (Homo sapiens (Human), UniProt P21860); settings: read-out: percent control
Excerpt: as §1

[37] = biological target: STK33 (Homo sapiens (Human), UniProt Q9BYT3); settings: read-out: percent control
Excerpt: as §1

[38] = biological target: SRPK2 (Homo sapiens (Human), UniProt P78362); settings: read-out: percent control
Excerpt: as §1

[39] = biological target: RET (Homo sapiens (Human), UniProt P07949); settings: read-out: percent control
Excerpt: as §1

[40] = biological target: ALK (Homo sapiens (Human), UniProt Q9UM73); settings: read-out: percent control
Excerpt: as §1

ERK4, sequence (P31152 whole entry): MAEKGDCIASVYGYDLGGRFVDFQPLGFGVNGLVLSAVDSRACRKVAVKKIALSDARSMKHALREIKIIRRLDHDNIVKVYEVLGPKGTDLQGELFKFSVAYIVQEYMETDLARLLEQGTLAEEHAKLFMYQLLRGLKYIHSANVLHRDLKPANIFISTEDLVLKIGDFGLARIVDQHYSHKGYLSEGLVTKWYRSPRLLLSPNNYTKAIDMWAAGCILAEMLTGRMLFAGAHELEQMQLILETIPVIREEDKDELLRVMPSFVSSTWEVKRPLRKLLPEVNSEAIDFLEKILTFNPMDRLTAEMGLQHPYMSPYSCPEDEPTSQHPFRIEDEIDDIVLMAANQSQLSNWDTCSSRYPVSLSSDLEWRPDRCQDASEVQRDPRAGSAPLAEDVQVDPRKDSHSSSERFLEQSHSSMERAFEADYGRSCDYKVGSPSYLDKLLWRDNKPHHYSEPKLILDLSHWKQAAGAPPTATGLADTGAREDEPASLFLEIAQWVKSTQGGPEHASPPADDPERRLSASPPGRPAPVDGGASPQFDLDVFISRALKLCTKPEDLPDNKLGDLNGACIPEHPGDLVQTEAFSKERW
RSK1(Kin.Dom.1-N-terminal), sequence (Q15418 62-321 limits assumed): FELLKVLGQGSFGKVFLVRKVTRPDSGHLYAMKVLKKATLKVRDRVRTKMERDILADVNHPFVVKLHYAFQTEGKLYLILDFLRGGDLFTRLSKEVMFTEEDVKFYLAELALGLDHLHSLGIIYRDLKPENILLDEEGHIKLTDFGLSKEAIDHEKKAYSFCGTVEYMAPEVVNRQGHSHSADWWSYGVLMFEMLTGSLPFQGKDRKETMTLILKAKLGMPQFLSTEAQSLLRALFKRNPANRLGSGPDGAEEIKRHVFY
ERBB3, sequence (P21860 20-1342): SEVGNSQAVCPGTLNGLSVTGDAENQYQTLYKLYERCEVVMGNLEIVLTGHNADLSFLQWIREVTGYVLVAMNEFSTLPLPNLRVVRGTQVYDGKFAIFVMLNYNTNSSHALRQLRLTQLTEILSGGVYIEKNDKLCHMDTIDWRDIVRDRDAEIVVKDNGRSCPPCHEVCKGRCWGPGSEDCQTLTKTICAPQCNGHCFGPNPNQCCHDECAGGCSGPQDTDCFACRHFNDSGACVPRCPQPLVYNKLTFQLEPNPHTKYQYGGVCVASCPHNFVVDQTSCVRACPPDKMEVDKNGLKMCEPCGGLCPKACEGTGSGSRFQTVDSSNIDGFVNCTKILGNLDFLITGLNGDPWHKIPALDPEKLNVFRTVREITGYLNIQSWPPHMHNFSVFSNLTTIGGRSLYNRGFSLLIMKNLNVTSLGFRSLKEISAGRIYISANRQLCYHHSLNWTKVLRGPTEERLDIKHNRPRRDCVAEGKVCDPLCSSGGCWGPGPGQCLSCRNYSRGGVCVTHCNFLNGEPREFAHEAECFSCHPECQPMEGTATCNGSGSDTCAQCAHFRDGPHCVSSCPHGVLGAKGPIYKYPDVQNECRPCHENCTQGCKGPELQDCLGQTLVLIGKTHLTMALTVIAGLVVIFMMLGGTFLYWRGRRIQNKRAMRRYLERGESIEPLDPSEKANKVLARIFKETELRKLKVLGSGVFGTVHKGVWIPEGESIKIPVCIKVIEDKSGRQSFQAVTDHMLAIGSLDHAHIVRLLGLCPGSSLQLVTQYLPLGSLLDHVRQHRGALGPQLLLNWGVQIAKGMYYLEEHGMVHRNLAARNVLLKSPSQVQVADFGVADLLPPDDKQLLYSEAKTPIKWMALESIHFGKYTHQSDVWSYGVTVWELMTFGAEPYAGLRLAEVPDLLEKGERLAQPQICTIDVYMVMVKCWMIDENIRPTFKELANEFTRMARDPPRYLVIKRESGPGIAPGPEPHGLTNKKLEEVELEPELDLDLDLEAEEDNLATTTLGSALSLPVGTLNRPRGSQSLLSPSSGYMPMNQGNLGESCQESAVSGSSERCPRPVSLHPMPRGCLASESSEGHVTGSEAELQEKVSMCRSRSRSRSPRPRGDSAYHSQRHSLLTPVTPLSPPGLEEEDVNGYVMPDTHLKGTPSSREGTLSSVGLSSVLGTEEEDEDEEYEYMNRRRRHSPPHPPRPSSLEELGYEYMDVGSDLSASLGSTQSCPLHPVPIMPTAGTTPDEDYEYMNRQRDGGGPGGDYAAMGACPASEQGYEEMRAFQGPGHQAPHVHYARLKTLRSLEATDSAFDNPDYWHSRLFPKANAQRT
CDKL3, sequence (Q8IVW4 whole entry): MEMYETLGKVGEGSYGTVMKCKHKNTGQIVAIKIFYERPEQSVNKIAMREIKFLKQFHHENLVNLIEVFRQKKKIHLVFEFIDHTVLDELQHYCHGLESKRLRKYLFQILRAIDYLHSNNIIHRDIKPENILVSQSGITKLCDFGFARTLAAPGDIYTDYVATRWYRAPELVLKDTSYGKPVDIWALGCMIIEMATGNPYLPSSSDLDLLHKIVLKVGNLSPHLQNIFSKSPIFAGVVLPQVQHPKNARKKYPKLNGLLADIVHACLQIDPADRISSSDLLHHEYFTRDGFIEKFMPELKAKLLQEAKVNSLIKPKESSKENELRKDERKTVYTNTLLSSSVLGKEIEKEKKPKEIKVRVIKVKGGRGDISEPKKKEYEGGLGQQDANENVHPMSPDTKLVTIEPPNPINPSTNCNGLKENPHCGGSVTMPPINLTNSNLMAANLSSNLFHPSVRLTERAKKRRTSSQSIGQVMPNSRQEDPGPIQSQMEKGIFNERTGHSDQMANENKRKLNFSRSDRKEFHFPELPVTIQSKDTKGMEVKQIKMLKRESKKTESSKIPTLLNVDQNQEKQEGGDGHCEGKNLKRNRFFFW
PRP4, sequence (Q13523 whole entry, looked up): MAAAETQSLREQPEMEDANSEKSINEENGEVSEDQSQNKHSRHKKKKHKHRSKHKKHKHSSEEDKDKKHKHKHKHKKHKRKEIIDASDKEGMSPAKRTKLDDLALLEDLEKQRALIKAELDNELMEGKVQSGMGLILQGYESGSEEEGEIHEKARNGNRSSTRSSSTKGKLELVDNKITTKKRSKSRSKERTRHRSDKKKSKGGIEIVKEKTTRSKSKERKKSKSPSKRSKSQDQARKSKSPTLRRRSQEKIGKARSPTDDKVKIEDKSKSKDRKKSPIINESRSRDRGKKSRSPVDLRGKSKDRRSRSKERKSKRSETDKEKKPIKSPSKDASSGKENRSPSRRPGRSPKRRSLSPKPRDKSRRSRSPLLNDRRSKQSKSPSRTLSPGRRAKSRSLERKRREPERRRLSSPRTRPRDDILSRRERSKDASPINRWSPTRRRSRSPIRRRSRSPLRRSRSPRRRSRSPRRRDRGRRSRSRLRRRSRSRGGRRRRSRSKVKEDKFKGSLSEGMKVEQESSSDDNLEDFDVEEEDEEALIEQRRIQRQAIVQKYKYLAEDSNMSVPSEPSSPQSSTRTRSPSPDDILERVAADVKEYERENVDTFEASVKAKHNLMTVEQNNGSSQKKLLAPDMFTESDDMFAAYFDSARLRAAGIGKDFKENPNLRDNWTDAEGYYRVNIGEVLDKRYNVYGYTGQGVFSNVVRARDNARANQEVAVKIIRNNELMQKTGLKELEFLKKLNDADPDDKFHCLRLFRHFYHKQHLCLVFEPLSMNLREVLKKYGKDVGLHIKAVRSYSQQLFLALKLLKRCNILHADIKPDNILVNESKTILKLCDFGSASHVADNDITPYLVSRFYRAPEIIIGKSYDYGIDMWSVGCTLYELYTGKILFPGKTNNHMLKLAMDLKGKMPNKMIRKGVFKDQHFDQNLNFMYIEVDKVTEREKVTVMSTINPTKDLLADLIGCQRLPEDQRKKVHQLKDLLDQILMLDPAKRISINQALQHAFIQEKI
GSK3B, sequence (P49841 whole entry): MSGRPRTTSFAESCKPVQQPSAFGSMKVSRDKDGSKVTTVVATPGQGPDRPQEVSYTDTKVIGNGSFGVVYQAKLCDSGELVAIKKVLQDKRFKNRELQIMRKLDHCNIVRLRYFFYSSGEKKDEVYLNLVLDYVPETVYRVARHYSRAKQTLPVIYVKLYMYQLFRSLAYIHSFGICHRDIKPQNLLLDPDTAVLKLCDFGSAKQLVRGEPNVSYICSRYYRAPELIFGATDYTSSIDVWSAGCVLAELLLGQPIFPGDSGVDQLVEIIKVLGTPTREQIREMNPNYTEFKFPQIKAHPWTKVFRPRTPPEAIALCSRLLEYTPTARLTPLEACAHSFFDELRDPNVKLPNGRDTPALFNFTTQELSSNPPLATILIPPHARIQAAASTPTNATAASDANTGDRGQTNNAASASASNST
LIMK2, sequence (P53671 whole entry): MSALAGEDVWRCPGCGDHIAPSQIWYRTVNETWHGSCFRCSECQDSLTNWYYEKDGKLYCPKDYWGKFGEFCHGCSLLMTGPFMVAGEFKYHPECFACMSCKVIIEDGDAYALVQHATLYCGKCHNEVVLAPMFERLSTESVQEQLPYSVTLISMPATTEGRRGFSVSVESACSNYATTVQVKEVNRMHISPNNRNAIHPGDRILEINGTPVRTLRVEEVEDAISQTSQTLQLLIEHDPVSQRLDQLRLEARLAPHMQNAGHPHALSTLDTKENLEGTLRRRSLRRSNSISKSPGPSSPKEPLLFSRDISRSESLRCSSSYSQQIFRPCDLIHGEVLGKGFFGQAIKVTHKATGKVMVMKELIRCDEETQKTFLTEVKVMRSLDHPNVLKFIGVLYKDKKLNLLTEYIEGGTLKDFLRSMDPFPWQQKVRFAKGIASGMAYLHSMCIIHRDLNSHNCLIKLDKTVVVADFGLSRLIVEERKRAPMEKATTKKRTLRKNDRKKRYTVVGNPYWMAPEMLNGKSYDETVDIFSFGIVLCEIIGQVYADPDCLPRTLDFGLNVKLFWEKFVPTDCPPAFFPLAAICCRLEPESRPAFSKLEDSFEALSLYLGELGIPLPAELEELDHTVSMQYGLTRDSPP

SMILES	remaining binding at 1 µM [1] [%]	remaining binding at 1 µM [2] [%]	remaining binding at 1 µM [3] [%]	remaining binding at 1 µM [4] [%]	remaining binding at 1 µM [5] [%]	remaining binding at 1 µM [6] [%]	remaining binding at 1 µM [7] [%]	remaining binding at 1 µM [8] [%]	remaining binding at 1 µM [9] [%]	remaining binding at 1 µM [10] [%]	remaining binding at 1 µM [11] [%]	remaining binding at 1 µM [12] [%]	remaining binding at 1 µM [13] [%]	remaining binding at 1 µM [14] [%]	remaining binding at 1 µM [15] [%]	remaining binding at 1 µM [16] [%]	remaining binding at 1 µM [17] [%]	remaining binding at 1 µM [18] [%]	remaining binding at 1 µM [19] [%]	remaining binding at 1 µM [20] [%]	also measured
CCN1CCN(Cc2ccc(Nc3nc4ccc(Oc5ccnc(NC(C)=O)c5)cc4n3C)cc2C(F)(F)F)CC1 [Compound I-2]	62	79	91	88	0	100	76	100	7.6	100	0	81	79	89	75	77	100	97	86	16	remaining binding at 1 µM [21]: 91%; percent control [22]: 34%; remaining binding at 1 µM [23]: 100%; remaining binding at 1 µM [24]: 96%; remaining binding at 1 µM [25]: 100%; remaining binding at 1 µM [26]: 9%; remaining binding at 1 µM [27]: 100%; remaining binding at 1 µM [28]: 3.9%; remaining binding at 1 µM [29]: 45%; remaining binding at 1 µM [30]: 21%; remaining binding at 1 µM [31]: 100%; remaining binding at 1 µM [32]: 43%; remaining binding at 1 µM [33]: 100%; remaining binding at 1 µM [34]: 100%; remaining binding at 1 µM [35]: 67%; remaining binding at 1 µM [36]: 62%; remaining binding at 1 µM [37]: 76%; remaining binding at 1 µM [38]: 92%; remaining binding at 1 µM [39]: 0%; remaining binding at 1 µM [40]: 76%
CCN1CCN(Cc2ccc(Nc3nc4ccc(Oc5ccnc(NC(C)=O)c5)c(C)c4n3C)cc2C(F)(F)F)CC1 [Compound I-6, N-(4-(2-(4-((4-ethylpiperazin-1-yl)methyl)-3-(trifluoromethyl)phenylamino)-1,7-dimethyl-1H-benzo[d]imidazol-6-yloxy)pyridin-2-yl)acetamide]	87	90	92	96	0.05	90	100	88	0.4	100	0.15	98	84	88	100	92	91	98	100	9.3	remaining binding at 1 µM [21]: 89%; percent control [22]: 46%; remaining binding at 1 µM [23]: 95%; remaining binding at 1 µM [24]: 90%; remaining binding at 1 µM [25]: 75%; remaining binding at 1 µM [26]: 3.2%; remaining binding at 1 µM [27]: 99%; remaining binding at 1 µM [28]: 9.2%; remaining binding at 1 µM [29]: 15%; remaining binding at 1 µM [30]: 0.6%; remaining binding at 1 µM [31]: 100%; remaining binding at 1 µM [32]: 44%; remaining binding at 1 µM [33]: 99%; remaining binding at 1 µM [34]: 100%; remaining binding at 1 µM [35]: 38%; remaining binding at 1 µM [36]: 89%; remaining binding at 1 µM [37]: 66%; remaining binding at 1 µM [38]: 75%; remaining binding at 1 µM [39]: 0.1%; remaining binding at 1 µM [40]: 90%

Reference: patent publication US12522583B2, “Benzimidazole derivatives and aza-benzimidazole derivatives as Janus kinase 2 inhibitors and uses thereof” (Dana-Farber Cancer Institute, Inc., priority 2018, dated 2026)
